# In PMC9898036, “VIP152 is a selective CDK9 inhibitor with pre-clinical in vitro and in vivo efficacy in chronic lymphocytic leukemia” (Leukemia, 2022):
# Read-outs that look alike come from different tables or passages of the source.
# Tests used:
# Experiment in all cases: DiscoverX KINOMEscan kinase profiling (468 assays)
# Type in all cases: binding
# [1] = target: human kinome (Homo sapiens, UniProt O00141); conditions: kinase SGK (Entrez SGK1); compound concentration 1000 nM; read-out: Percent Control
# Summary of the method: (§1)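 DNA-tagged kinases competed for immobilized biotinylated ligands on streptavidin magnetic beads, with bound kinase quantified by qPCR. VIP152 in DMSO was tested against a DMSO control.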
# [2] = target: human kinome (Homo sapiens, UniProt O75914); conditions: read-out: Percent Control
# Summary of the method: as §1
# [3] = target: human kinome (Homo sapiens, UniProt P00533, L858R); conditions: EGFR(L858R); 100 nM; read-out: Percent Control
# Summary of the method: as §1
# [4] = target: human kinome (Homo sapiens, UniProt P00533, L861Q); conditions: EGFR(L861Q); 100 nM; read-out: Percent Control
# Summary of the method: as §1
# [5] = target: human kinome (Homo sapiens, UniProt P06239); conditions: LCK; 100 nM; read-out: Percent Control
# Summary of the method: as §1
# [6] = target: human kinome (Homo sapiens, UniProt P06241); conditions: FYN; 100 nM; read-out: Percent Control
# Summary of the method: as §1
# [7] = target: human kinome (Homo sapiens, UniProt P09619); conditions: read-out: Percent Control
# Summary of the method: as §1
# [8] = target: human kinome (Homo sapiens, UniProt P11802); conditions: 100 nM, read-out: Percent Control
# Summary of the method: as §1
# [9] = target: human kinome (Homo sapiens, UniProt P16591); conditions: FER; 100 nM; read-out: Percent Control
# Summary of the method: as §1
# [10] = target: human kinome (Homo sapiens, UniProt P19784); conditions: CSNK2A2; 100 nM; read-out: Percent Control
# Summary of the method: as §1
# [11] = target: human kinome (Homo sapiens, UniProt P21860); conditions: ERBB3; 100 nM; read-out: Percent Control
# Summary of the method: as §1
# [12] = target: human kinome (Homo sapiens, UniProt P23458); conditions: 100 nM, read-out: Percent Control
# Summary of the method: as §1
# [13] = target: human kinome (Homo sapiens, UniProt P30291); conditions: kinase WEE1 (Entrez WEE1); compound concentration 1000 nM; read-out: Percent Control
# Summary of the method: as §1
# [14] = target: human kinome (Homo sapiens, UniProt P36888, R834Q); conditions: FLT3(R834Q); 100 nM; read-out: Percent Control
# Summary of the method: as §1
# [15] = target: human kinome (Homo sapiens, UniProt P48730); conditions: CSNK1D; 100 nM; read-out: Percent Control
# Summary of the method: as §1
# [16] = target: human kinome (Homo sapiens, UniProt P54762); conditions: EPHB1; 100 nM; read-out: Percent Control
# Summary of the method: as §1
# [17] = target: human kinome (Homo sapiens, UniProt Q00532); conditions: CDKL1; 100 nM; read-out: Percent Control
# Summary of the method: as §1
# [18] = target: human kinome (Homo sapiens, UniProt Q06187); conditions: BTK; 100 nM; read-out: Percent Control
# Summary of the method: as §1
# [19] = target: human kinome (Homo sapiens, UniProt Q07912); conditions: kinase TNK2 (Entrez TNK2); compound concentration 1000 nM; read-out: Percent Control
# Summary of the method: as §1
# [20] = target: human kinome (Homo sapiens, UniProt Q13163); conditions: MEK5 (Entrez MAP2K5); 100 nM; read-out: Percent Control
# Summary of the method: as §1
# [21] = target: human kinome (Homo sapiens, UniProt Q15208); conditions: read-out: Percent Control
# Summary of the method: as §1
# [22] = target: human kinome (Homo sapiens, UniProt Q16288); conditions: kinase TRKC (Entrez NTRK3); compound concentration 1000 nM; read-out: Percent Control
# Summary of the method: as §1
# [23] = target: human kinome (Homo sapiens, UniProt Q6P2M8); conditions: CAMK1B (Entrez PNCK); 100 nM; read-out: Percent Control
# Summary of the method: as §1
# [24] = target: human kinome (Homo sapiens, UniProt Q8TD08); conditions: ERK8 (Entrez MAPK15); 100 nM; read-out: Percent Control
# Summary of the method: as §1
# [25] = target: human kinome (Homo sapiens, UniProt Q8TD19); conditions: read-out: Percent Control
# Summary of the method: as §1
# [26] = target: human kinome (Homo sapiens, UniProt Q96L34); conditions: MARK4; 100 nM; read-out: Percent Control
# Summary of the method: as §1
# [27] = target: human kinome (Homo sapiens, UniProt Q9NRH2); conditions: kinase SNRK (Entrez SNRK); compound concentration 1000 nM; read-out: Percent Control
# Summary of the method: as §1
# [28] = target: human kinome (Homo sapiens, UniProt Q9UKI8); conditions: kinase TLK1 (Entrez TLK1); compound concentration 1000 nM; read-out: Percent Control
# Summary of the method: as §1
# [29] = target: human kinome (Homo sapiens, UniProt Q9UQB9); conditions: AURKC; 100 nM; read-out: Percent Control
# Summary of the method: as §1
# [30] = target: human kinome (Homo sapiens, UniProt Q9Y2U5); conditions: MAP3K2; 100 nM; read-out: Percent Control
# Summary of the method: as §1
# Sequence of human kinome (Homo sapiens, UniProt P11802) (P11802 whole entry): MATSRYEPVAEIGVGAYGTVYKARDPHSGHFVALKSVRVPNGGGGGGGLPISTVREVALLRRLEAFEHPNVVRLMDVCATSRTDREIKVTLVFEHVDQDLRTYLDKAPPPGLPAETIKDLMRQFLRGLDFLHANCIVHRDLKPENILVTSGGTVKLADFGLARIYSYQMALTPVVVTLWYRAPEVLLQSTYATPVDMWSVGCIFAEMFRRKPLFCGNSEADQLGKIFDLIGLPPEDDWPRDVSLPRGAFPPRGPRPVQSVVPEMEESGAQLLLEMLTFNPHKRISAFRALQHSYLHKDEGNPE
# Sequence of human kinome (Homo sapiens, UniProt P23458) (P23458 whole entry): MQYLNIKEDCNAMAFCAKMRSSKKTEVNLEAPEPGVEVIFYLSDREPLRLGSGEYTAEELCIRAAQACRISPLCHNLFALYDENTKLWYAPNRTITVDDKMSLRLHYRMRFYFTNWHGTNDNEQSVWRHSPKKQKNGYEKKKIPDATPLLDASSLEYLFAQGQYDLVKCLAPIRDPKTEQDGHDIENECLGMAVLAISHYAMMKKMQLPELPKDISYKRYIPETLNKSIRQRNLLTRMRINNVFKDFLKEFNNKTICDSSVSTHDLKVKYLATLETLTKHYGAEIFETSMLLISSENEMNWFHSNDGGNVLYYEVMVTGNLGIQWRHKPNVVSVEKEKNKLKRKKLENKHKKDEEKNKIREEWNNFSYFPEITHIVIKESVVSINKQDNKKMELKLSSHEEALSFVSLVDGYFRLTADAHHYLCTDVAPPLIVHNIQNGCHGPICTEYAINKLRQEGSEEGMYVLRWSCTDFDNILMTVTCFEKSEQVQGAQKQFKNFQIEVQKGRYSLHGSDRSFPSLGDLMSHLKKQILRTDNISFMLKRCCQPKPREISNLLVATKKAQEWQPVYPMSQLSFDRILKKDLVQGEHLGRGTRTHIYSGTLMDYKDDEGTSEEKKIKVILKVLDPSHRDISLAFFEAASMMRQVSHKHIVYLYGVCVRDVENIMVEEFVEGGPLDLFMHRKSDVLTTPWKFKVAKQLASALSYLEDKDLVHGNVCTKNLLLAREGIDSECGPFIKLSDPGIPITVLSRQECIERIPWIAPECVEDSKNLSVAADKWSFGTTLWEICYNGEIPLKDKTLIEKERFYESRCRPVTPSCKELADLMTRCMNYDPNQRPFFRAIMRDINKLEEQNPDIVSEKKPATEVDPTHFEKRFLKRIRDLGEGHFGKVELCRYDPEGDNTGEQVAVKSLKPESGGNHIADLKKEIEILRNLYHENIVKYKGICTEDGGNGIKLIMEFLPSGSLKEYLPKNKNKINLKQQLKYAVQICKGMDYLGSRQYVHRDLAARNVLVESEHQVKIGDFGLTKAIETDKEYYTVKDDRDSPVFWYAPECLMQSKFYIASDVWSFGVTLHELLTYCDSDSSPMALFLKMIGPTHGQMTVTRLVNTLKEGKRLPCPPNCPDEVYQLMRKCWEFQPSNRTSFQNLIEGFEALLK
# Sequence of human kinome (Homo sapiens, UniProt Q8TD19) (Q8TD19 whole entry): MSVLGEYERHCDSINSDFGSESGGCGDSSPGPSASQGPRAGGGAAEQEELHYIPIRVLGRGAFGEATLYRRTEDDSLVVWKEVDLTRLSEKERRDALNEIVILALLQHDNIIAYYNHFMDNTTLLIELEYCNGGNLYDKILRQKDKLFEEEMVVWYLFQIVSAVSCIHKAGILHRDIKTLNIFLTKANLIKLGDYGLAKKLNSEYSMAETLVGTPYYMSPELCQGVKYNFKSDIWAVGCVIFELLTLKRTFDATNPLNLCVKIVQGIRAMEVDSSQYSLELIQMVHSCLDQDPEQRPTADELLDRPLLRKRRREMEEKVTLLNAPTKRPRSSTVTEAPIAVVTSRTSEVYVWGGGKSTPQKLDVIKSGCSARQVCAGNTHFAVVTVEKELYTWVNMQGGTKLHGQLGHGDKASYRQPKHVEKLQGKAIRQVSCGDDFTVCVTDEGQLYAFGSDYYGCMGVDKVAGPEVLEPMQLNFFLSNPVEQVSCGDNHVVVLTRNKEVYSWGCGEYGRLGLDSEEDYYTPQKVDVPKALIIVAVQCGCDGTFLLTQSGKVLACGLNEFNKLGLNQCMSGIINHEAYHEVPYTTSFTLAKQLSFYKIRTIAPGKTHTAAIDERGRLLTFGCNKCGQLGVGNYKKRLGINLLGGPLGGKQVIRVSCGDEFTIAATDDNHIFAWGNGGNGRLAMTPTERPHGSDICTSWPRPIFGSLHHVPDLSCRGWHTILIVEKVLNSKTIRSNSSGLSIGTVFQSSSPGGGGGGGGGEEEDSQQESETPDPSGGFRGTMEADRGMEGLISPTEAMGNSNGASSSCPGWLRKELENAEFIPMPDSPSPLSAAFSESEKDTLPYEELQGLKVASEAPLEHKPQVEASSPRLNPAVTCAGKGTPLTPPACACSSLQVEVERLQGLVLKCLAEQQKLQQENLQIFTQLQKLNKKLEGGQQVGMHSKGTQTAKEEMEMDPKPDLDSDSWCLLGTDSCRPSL
# Sequence of human kinome (Homo sapiens, UniProt Q15208) (Q15208 whole entry): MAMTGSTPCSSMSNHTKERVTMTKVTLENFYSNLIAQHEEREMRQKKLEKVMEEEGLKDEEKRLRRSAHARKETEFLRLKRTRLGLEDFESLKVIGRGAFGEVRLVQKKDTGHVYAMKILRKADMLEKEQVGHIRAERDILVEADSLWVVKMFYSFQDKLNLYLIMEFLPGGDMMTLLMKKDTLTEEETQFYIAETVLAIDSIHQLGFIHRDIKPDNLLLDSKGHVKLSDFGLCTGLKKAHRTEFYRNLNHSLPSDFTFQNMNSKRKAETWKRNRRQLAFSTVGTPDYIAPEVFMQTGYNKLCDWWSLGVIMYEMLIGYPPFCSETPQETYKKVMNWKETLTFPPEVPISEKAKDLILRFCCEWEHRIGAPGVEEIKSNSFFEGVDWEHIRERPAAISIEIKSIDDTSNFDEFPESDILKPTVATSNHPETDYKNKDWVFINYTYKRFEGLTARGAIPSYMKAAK
# Sequence of human kinome (Homo sapiens, UniProt O75914) (O75914 whole entry): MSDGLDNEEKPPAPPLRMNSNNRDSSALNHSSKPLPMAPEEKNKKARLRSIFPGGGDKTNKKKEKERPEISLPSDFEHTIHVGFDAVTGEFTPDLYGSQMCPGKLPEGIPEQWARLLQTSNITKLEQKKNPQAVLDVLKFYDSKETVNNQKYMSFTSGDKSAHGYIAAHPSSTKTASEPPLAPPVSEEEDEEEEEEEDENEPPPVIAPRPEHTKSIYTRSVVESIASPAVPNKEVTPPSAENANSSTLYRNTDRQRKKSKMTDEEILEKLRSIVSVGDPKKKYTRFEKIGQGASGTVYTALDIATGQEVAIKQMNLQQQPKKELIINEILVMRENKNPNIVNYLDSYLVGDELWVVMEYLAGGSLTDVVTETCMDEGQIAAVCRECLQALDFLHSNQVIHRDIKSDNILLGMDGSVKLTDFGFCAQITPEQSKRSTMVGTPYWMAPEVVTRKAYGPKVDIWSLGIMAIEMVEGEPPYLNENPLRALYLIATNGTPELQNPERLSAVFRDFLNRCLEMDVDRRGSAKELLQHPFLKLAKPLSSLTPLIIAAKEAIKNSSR
# Sequence of human kinome (Homo sapiens, UniProt P09619) (P09619 33-1106): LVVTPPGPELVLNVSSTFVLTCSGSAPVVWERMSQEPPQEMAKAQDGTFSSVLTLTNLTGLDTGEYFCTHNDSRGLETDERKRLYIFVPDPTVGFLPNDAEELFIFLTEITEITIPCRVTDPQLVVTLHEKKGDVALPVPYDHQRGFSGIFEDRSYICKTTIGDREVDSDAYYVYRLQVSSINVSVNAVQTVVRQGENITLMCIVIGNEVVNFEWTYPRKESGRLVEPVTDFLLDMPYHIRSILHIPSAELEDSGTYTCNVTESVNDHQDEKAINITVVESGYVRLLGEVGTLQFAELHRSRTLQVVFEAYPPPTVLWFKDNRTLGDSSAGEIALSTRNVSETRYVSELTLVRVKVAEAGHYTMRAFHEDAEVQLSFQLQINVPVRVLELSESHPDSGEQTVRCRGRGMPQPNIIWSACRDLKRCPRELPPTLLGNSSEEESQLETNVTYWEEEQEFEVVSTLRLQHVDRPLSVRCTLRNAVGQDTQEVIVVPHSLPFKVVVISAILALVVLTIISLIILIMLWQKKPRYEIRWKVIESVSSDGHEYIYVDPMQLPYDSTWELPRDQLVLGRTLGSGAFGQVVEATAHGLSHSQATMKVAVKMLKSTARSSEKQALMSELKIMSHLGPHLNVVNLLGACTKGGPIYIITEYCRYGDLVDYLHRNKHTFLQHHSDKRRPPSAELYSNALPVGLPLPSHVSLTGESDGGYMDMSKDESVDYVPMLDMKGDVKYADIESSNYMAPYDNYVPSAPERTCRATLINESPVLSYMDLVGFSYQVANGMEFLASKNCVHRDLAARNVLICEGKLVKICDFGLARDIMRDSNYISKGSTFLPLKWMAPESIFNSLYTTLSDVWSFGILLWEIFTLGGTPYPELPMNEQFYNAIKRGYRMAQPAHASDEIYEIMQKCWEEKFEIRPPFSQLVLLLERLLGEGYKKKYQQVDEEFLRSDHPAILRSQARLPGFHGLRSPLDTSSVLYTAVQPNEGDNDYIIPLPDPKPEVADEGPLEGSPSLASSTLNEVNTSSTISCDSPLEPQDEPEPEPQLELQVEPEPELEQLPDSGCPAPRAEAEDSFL
# Sequence of human kinome (Homo sapiens, UniProt Q00532) (Q00532 whole entry): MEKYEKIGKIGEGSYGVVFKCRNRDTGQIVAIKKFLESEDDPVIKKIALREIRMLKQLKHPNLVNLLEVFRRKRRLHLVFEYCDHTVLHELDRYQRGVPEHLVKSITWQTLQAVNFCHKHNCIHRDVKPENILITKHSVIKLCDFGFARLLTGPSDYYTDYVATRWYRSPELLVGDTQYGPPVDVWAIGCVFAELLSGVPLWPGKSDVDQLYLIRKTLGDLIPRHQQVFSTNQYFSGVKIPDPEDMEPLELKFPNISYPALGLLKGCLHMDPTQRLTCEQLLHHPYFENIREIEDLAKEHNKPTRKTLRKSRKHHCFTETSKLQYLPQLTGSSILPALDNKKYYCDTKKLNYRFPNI
compound,measurement,setting,value
COc1cc(F)ccc1-c1cc(Nc2cc(CS(C)(=N)=O)ccn2)ncc1F (stereo not shown) [VIP152],remaining binding at 1 µM,[1],83%
same,remaining binding at 0.1 µM,"[2]; PAK3, 100 nM",100%
same,remaining binding at 1 µM,"[2]; kinase PAK3 (Entrez PAK3), compound concentration 1000 nM",62%
same,remaining binding at 0.1 µM,[3],100%
same,remaining binding at 0.1 µM,[4],100%
same,remaining binding at 0.1 µM,[5],100%
same,remaining binding at 0.1 µM,[6],100%
same,remaining binding at 0.1 µM,"[7]; PDGFRB, 100 nM",100%
same,remaining binding at 1 µM,"[7]; kinase PDGFRB (Entrez PDGFRB), compound concentration 1000 nM",71%
same,remaining binding at 0.1 µM,[8]; CDK4-cyclinD1,85%
same,remaining binding at 0.1 µM,[8]; CDK4-cyclinD3,92%
same,remaining binding at 0.1 µM,[8]; CDK4,100%
same,remaining binding at 0.1 µM,[9],100%
same,remaining binding at 0.1 µM,[10],100%
same,remaining binding at 0.1 µM,[11],100%
same,remaining binding at 0.1 µM,[12]; JAK1(JH1domain-catalytic),87%
same,remaining binding at 0.1 µM,[12]; JAK1(JH2domain-pseudokinase),100%
same,remaining binding at 1 µM,[13],86%
same,remaining binding at 0.1 µM,[14],100%
same,remaining binding at 0.1 µM,[15],100%
same,remaining binding at 0.1 µM,[16],100%
same,remaining binding at 0.1 µM,[17],69%
same,remaining binding at 0.1 µM,[18],100%
same,remaining binding at 1 µM,[19],92%
same,remaining binding at 0.1 µM,[20],100%
same,remaining binding at 0.1 µM,"[21]; NDR1 (Entrez STK38), 100 nM",100%
same,remaining binding at 1 µM,"[21]; kinase NDR1 (Entrez STK38), compound concentration 1000 nM",93%
same,remaining binding at 1 µM,[22],26%
same,remaining binding at 0.1 µM,[23],87%
same,remaining binding at 0.1 µM,[24],94%
same,remaining binding at 0.1 µM,"[25]; NEK9, 100 nM",100%
same,remaining binding at 1 µM,"[25]; kinase NEK9 (Entrez NEK9), compound concentration 1000 nM",93%
same,remaining binding at 0.1 µM,[26],81%
same,remaining binding at 1 µM,[27],90%
same,remaining binding at 1 µM,[28],89%
same,remaining binding at 0.1 µM,[29],100%
same,remaining binding at 0.1 µM,[30],100%
